Test results from patent US20260356814A1, “INDOLINE DERIVATIVES AS SEROTONERGIC AGENTS USEFUL FOR THE TREATMENT OF DISORDERS RELATED THERETO” (MINDSET PHARMA INC., priority 2022, published 2026).

How the values were obtained:
human 5-HT1A receptor = target: T1, human 5-HT1A receptor (Homo sapiens, UniProt P08908); assay: Human 5-HT1A: Functional FLIPR assay (agonist mode); format: cell-based; conditions: for RFU@10 μM: @10 μM (head), footnote: curve fitting with activation (%) @ 10 mM with RFU, RFU=Fmax−Fmin; for EC50: FLIPR calcium, agonist mode, HTR1A&Gα15-CHO cells, ND: not detected, read-out: h5-HT1A, EC50
T1 construct: expressed in transfected cells; host or cells: CHO (HTR1A&Ga15-CHO)
T1 sequence (P08908 1-422): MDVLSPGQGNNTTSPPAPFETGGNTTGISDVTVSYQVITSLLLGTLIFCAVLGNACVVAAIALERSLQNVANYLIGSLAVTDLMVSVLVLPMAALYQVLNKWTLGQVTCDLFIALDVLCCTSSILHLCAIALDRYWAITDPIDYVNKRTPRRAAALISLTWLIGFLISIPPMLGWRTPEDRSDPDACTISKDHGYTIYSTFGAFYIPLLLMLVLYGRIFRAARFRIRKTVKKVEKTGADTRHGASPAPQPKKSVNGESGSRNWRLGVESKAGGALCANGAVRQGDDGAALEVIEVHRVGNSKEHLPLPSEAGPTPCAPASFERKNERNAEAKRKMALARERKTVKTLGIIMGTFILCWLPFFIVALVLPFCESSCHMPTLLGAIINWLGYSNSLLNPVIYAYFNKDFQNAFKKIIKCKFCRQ
Description: The potential excitatory effects of compounds targeting on 5-hydroxytryptamine receptor 1A (5-HT1A) under agonist mode was assessed.
HTR1A&Ga15-CHO cells were cultured in DMEM/F12 medium containing 10% dialyzed FBS, 1x penicillin-streptomycin and 600 μg/mL Hygromycin B. The cells were passaged about three times a week, maintained between ~30% to ~90% confluence.
• 1. The cell culture medium (DMEM/F12 medium containing 10% dialyzed FBS, 1x penicillin-streptomycin and 600 μg/mL Hygromycin B), TrypLE™ Express and DPBS was warmed to R.T. in advance. • 2. The cell culture medium was removed from flask. Washed cells with DPBS. • 3. 1 mL TrypLE™ Express was added to the flask, mixed well by gentle shaking and cells were incubated at 37° C. for a few minutes. • 4. The cells were checked for morphological change under microscope, the digestion was stopped by adding 2 mL cell culture medium to the flask when most of cells turned to round. • 5. The cell suspension was transferred into a 15 mL centrifuge tube, and then centrifuged at 1,200 rpm for 5 minutes. • 6. The supernatant was removed. The cell pellet were resuspended with 2 mL cell culture medium. • 7. The cell density were counted using cell counter. Only cells with >85% viability were used for the assay. • 8. Cells were diluted to 4×10^5/mL with cell culture medium. • 9. 30 μL/well cell suspensions were added into a 384-well cell plate (The cell density was 12,000 cells/well). • 10. The cell plate was incubated overnight at 37° C., 5% (v/v) CO2.
• 1. On the day of experiments, culture medium was removed from the cell plate. • 2. 10 μL of assay buffer (20 mM HEPES, in 1×HBSS, pH 7.4) was added to each well of the cell plate. • 3. 2× dye solution was prepared following the manufacture's instruction of the FLIPR® Calcium 6 assay kit: • i. The dye was diluted with assay buffer. • ii. probenecid was added to the final concentration of 5 mM. • iii. Vortexed vigorously for 1-2 minutes, adjust pH to 7.4. • 4. 10 μL of 2×dye solution was added to each well of the cell plate. • 5. The cell plate was placed on plate shaker, followed by shaking at 600 rpm for 2 minutes. • 6. The plate was incubated at 37° C. for 2 hours followed by an additional 15-minute incubation at 25° C. 3.4 Prepare 3×compounds. • 1. Serotonin was prepared to the concentration of 10 mM with DMSO, 3-folds serial dilutions were performed with DMSO. • 2. Prepare the test compound to the concentration of 10 mM with DMSO, preform 3-folds serial dilutions with DMSO. • 3. The compounds were added to a 384-well compound source plate. • 4. 90 nL/well of serial diluted compounds were transferred from source plate to a 384-well compound plate by using an Echo. • 5. 30 μL/well of assay buffer was added to the compound plate. • 6. The plate was mixed on-plate shaker for 2 minutes. 3.5 FLIPR assay • 1. After the cells incubate with dye solution, the cell plate, compound plate containing 3×compounds and FLIPR tips were placed into FLIPR. • 2. 10 μL of 3×compounds were transferred from the compound plate to the cell plate by FLIPR. • 3. The plate was read for 160 sec with 1 sec interval to obtain the data of agonist mode.
• 1. The normalized fluorescence reading (RFU) was calculated as shown below, wherein Fmax and Fmin stand for maximum and minimum of calcium signal during defined time window:
RFU=Fmax−Fmin • 2. EC50 was calculated by fitting RFU against log of compound concentrations with Hill equation using XLfit.

Plasma stability, human = format: in vitro ADME; conditions: 37° C.; for remaining at 0.5 h: 30 min, read-out: Remaining Percentage (%), 30 min; for remaining at 1 h: 60 min, read-out: Remaining Percentage (%), 60 min; for half-life: >255.85 if remaining at 60 min greater than 85%
Description: (§1) • a. […] The final concentration of organic solvents was 0.5%. The assay was performed in duplicated. • b.
(§2) All calculations were carried out using Microsoft Excel.

Plasma stability, mouse = format: in vitro ADME; conditions: 37° C.; for remaining at 0.5 h: 30 min, read-out: Remaining Percentage (%), 30 min; for remaining at 1 h: 60 min, read-out: Remaining Percentage (%), 60 min; for half-life: >255.85 if remaining at 60 min greater than 85%
Description: as §1, §2

Plasma stability, rat = format: in vitro ADME; conditions: 37° C.; for remaining at 0.5 h: 30 min, read-out: Remaining Percentage (%), 30 min; for remaining at 1 h: 60 min, read-out: Remaining Percentage (%), 60 min; for half-life: >255.85 if remaining at 60 min greater than 85%
Description: as §1, §2

Structure (SMILES) | RFU@10 μM (human 5-HT1A receptor) | Remaining Percentage (%), 0 min (Plasma stability, human) | remaining at 0.5 h (Plasma stability, human) | remaining at 1 h (Plasma stability, human) | half-life (Plasma stability, human) | Remaining Percentage (%), 0 min (Plasma stability, mouse) | remaining at 0.5 h (Plasma stability, mouse) | remaining at 1 h (Plasma stability, mouse) | half-life (Plasma stability, mouse) | Remaining Percentage (%), 0 min (Plasma stability, rat) | remaining at 0.5 h (Plasma stability, rat) | remaining at 1 h (Plasma stability, rat) | half-life (Plasma stability, rat) | EC50 (human 5-HT1A receptor)
COc1cccc2c1N(C[C@H]1CCCN1C)CC2 [(R)-I-46, (R)-7-Methoxy-1-((1-methylpyrrolidin-2-yl)methyl) indoline] | 373 RFU | 100.00% | 104% | 93% | > 4.26 h | 100.00% | 103% | 92.4% | > 4.26 h | 100.00% | 91.3% | 86.7% | > 4.26 h | –
[2H]C([2H])([2H])N(CCN1CCc2ccccc21)C([2H])([2H])[2H] [Compound I-71, 2-(Indolin-1-yl)-N,N-bis(methyl-d3) ethan-1-amine] | 145 RFU | – | – | – | – | – | – | – | – | – | – | – | – | –
COc1ccc2c(c1)N(C[C@H]1CCCN1C)CC2 [(R)-I-58, (R)-6-Methoxy-1-((1-methylpyrrolidin-2-yl)methyl) indoline] | 2444 RFU | 100.00% | 108% | 98.5% | > 4.26 h | 100.00% | 97.4% | 105% | > 4.26 h | 100.00% | 111% | 110% | > 4.26 h | 2.04 µM
COc1cccc2c1CCN2C[C@H]1CCCN1C [(R)-I-47, (R)-4-Methoxy-1-((1-methylpyrrolidin-2-yl)methyl) indoline] | 70 RFU | – | – | – | – | – | – | – | – | – | – | – | – | –
COc1ccc2c(c1)N(C[C@H]1CCCN1)CC2 [(R)-I-59, (R)-6-Methoxy-1-(pyrrolidin-2-ylmethyl) indoline] | 521 RFU | – | – | – | – | – | – | – | – | – | – | – | – | –
[2H]C([2H])([2H])N1CCC[C@@H]1C([2H])([2H])N1CCc2ccccc21 [(R)-I-1, (R)-1-((1-(Methyl-d3)pyrrolidin-2-yl)methyl-d2) indoline] | 84 RFU | – | – | – | – | – | – | – | – | – | – | – | – | –
COc1cc2c(cc1OC)N(C[C@H]1CCCN1C)CC2 [(R)-I-34, (R)-5,6-dimethoxy-1-((1-methylpyrrolidin-2-yl)methyl) indoline] | 155 RFU | – | – | – | – | – | – | – | – | – | – | – | – | –
[2H]C([2H])([2H])N1CCC[C@@H]1C([2H])([2H])N1CCc2ccc(OC)cc21 [(R)-I-57, (R)-6-Methoxy-1-((1-(methyl-d3)pyrrolidin-2-yl)methyl-d2) indoline] | 2081 RFU | 100.00% | 108% | 113% | > 4.26 h | 100.00% | 105% | 100% | > 4.26 h | 100.00% | 92.5% | 89.7% | > 4.26 h | 1.26 µM
[2H]C([2H])([2H])N(CCN1CCc2ccc(OC)cc21)C([2H])([2H])[2H] [Compound I-70, 2-(6-Methoxyindolin-1-yl)-N, N-bis(methyl-d3) ethan-1-amine] | 161 RFU | – | – | – | – | – | – | – | – | – | – | – | – | –
[2H]C([2H])([2H])Oc1ccc2c(c1)N(C([2H])([2H])[C@H]1CCCN1C([2H])([2H])[2H])CC2 [(R)-I-28, (R)-6-(Methoxy-d3)-1-((1-(methyl-d3)pyrrolidin-2-yl)methyl-d2) indoline] | 1981 RFU | 100.00% | 95.1% | 94.2% | > 4.26 h | 100.00% | 99.2% | 93.3% | > 4.26 h | 100.00% | 97.9% | 94.7% | > 4.26 h | 2.34 µM
